In US20210346665A1, “CONDUCTIVE MICRONEEDLE PATCH FOR ACTIVE AGENT DELIVERY” (Singapore Health Services Pte Ltd, priority 2018, published 2021):
Where a name gives a salt, the structure may show the parent alone.

Test: drug loading and release from MeHA MN patches in PBS
Format: physicochemical
Procedure: The drug loading capabilities of MeHA MNs was investigated by using model drugs of different molecular weights, mainly fluorescein isothiocyanate (FITC), FITC-Dextran and doxorubicin hydrochloride (Dox). The innate ability of the MeHA MN arrays to absorb fluid is taken advantage of to load the drug molecules into the MN tips. All three drugs are dissolved in PBS which were then used to equilibrate MeHA MN patches. After 10 minutes of incubation with the drug solution, the MNs were left to dry in the fumehood (FIG. 14). The amount of drug encapsulated in the MN was determined by immersing the drug loaded MeHA in 1×PBS. By obtaining a 50 μL of the solution at various time points, the fluorescence intensity was measured to determine the drug release profile of the three different drug molecules.
Next, the release profiles of drugs from the MeHA MN patches were examined.

In the case of COc1cccc2c1C(=O)c1c(O)c3c(c(O)c1C2=O)C[C@@](O)(C(=O)CO)C[C@@H]3O[C@H]1C[C@H](N)[C@H](O)[C@H](C)O1 [Dox, doxorubicin hydrochloride], the “released from the MN patches” value (MeHA MN patches, 1×PBS, within 30 minutes) is reported as 50%.
In the case of fluorescein isothiocyanate [FITC], the “loading into the MN tips through swelling” value (MeHA MN, 10 minutes incubation with drug solution in PBS) is reported as “easily loaded”.
